Test results published in the NIST ThermoML archive (doi:10.1016/j.fluid.2013.11.030).
± gives the expanded uncertainty stated by the source. One block for each molecule: values may come before it.

Details: Liquid, Ebulliometric method (Recirculating still)

SMILES: CC(C)=O [acetone]
vapor or sublimation pressure (329.3 K): 101.33 ± 1.5 kPa

vapor or sublimation pressure (471.6 K): 101.33 ± 1.4 kPa
SMILES: Cn1ccnc1 [1-methylimidazole]

SMILES: CCCCCCBr [1-bromohexane]
vapor or sublimation pressure (428.5 K): 101.33 ± 1.5 kPa
